Assay results: patent US12648928B2, “Intervention strategy for prevention or treatment of diabetes mellitus, autoimmune disease, inflammatory disease or cardiovascular disease” (ACADEMISCH MEDISCH CENTRUM, priority 2020, dated 2026)

Tests used:
NF-κB = NF-κB reporter macrophage luciferase assay (RAW264.7); type: cell-based, murine; details: RAW264.7 3x-κB-luc; LPS 10/100 ng/ml 2 hours; different doses (FIG. 7)
Description: NF-κB signaling activation was assessed by luciferase activity assay. RAW264.7 cells stably transfected with the 3×-κB-luc plasmid (DNA construct containing three NF-κB sites from the Ig κ light chain promoter coupled to the gene encoding firefly luciferase) were grown in DMEM medium supplemented with 10% heat-inactivated fetal bovine serum, penicillin (100 U/ml), streptomycin (100 μg/ml), L-glutamine (2 mM). Cells were seeded in F-bottom 96-well […] metabolites at different concentrations (6-BT 0,1-100 μM, LysoPC(20:0) 1-10 μM, 16:0-18:2 PE 1-50 μM, MA-GPC 1-100 μM). Afterwards, cells were lysed with 25 μl/well 1×passive lysis buffer and firefly luciferase activity was measured by LUCIFERASE® Assay System (Promega, E1500) on a GLOMAX @-Multi Detection System (Promega).

[1] = test system: murine bone marrow-isolated monocytes or bone marrow-derived macrophages; experiment: In vitro stimulation of murine monocytes / bone marrow-derived macrophages, cytokine ELISA; type: cell-based; details: for cytokine secretion by monocytes: murine monocytes CD11b+ activated with LPS (10 μg/ml) for 24 hours, TLR4 stimulation (FIG. 8)
Description: Naïve bone marrow monocytes were isolated from BM cells. Briefly, hind legs were removed from 3 mice, cleaned from surrounding muscles. The femur and tibia bones were trimmed at their extremities, the BM content was flushed out with cold PBS using a 10 ml syringe and a 25G needle and filtered through a 40 μm strainer. Red blood cells (RBC) were lysed with 1× RBC lysis buffer (Biolegend) for 5 min. on ice. CD11b+ monocytes were further purified by positive selection using a cocktail of CD11 b magnetic beads (Miltenyi Biotec, #130-049-601) and magnetizing MS columns (Miltenyi Biote) according to the manufacturer's instructions. Subsequently, monocytes were seeded in F-bottom 96-well plates at 1×10^5 cells per well in RPMI1640 supplemented with 10% heat-inactivated fetal bovine serum, penicillin (100 U/ml), streptomycin (100 μg/ml), L-glutamine (2 mM) […]. Monocytes were activated with 10 μg/ml LPS (Sigma-Aldrich) and subjected to treatment with 6-BT (10/100 μM), LysoPC(20:0) (10/50 μM), MA-GPC (10/50/100 μM), or appropriate vehicle. Cells were kept in a final volume of 200 μl/well for 24 hours, after which supernatant was harvested and stored at −80° C.
Bone marrow-derived macrophages (BMDM) and DC (BMDC) were obtained by differentiating freshly isolated BM cells from femur and tibia bones (as above described) of C57/B16 mice (N=3 per experiment). For BMDM, BM cells were seeded at 3×10^6 cells per 10 cm dish and cultured for 7 days in 12 ml RPMI1640 medium with 20% fetal bovine serum, 30% L-929 cell conditioned media, as source of murine macrophage colony-stimulating factor (M-CSF). For BMDC, BM cells were seeded at 0.5×10^6/ml cells in 25 ml in 10 cm dishes and cultured for 7 days in presence of GM-CSF in 5% FBS-RPMI1640 medium. After differentiation, BMDM/DCs were harvested, counted and seeded at a density of 1×10^5 cells per well in a F-bottom 96-well plate and left to adhere for 20 hours before experiments were performed. Macrophages were activated with 10 μg/ml polyinosinic-polycytidylic acid poly(I.C) (InvivoGen) for 24 hours in presence or not of 6-BT (10/100 μM), LysoPC(20:0) (10/50 μM), or MA-GPC (10/50/100 μM) in a final volume of 200 μl/well. At the end of the assay, supernatant was harvested and stored at −80° C.
(§1) Specific ELISAs (R&D Systems) were utilized to measure the concentration of TNFα, IFNβ, and IFNγ in cell supernatant of murine monocytes, macrophages ad T cells, respectively, according to the manufacturer's instructions. The concentration of insulin after 24-hour treatment with metabolites or after GSIS were determined using Rat insulin ELISA (Mercodia) according to the manufacturer's instructions. GSIS was calculated by subtracting the concentration of insulin at 1 mM glucose to the insulin rate at 22 mM glucose.
Here, murine bone marrow-isolated monocytes (Christ A., Western Diet Triggers NLRP3-Dependent Innate Immune Reprogramming. Cell 2018) or bone marrow-derived macrophages (Swanson K V, A noncanonical function of cGAMP in inflammasome priming and activation. JEM 2017) were exposed for 24 hours to the indicated concentrations of 6-BT (10-100 μM) in presence or not of 10 μg/ml LPS, 10 μg/ml P3C or 10 μg/ml poly(I.C).

murine CD4+ T cells = experiment: In vitro CD4+ T cell activation assay (anti-CD3/anti-CD28); type: cell-based; details: for Th1 responses in CD4 T cells: anti-CD3 & anti-CD28 mAbs, 24 hours (FIG. 11)
Description: Primary CD4+ T cells were freshly isolated by negative selection from spleens of C57/B16 mice (N=3 per experiment). Briefly, spleens were smashed in a culture dish and passed twice through a strainer (70 μm and 40 μm, respectively) to obtain a single-cell suspension.
Using the negative selection (CD4+ T Cell Isolation kit, Miltenyi Biotec, #130-10-454). Non-CD4 T cells were depleted by retaining them in LS magnetizing column (Miltenyi Biotec).
Isolated CD4 T cells were cultured in 96-well plates (1×10^5 per well) in RPMI1640 medium supplemented with 10% fetal bovine serum, 100 U/ml penicillin, 100 μg/ml streptomycin, 2 mM L-glutamine. Treatment with the metabolites 6-BT (1/10 μM), LysoPC(20:0) (10/50 μM) or MA-GPC (10/50/100 μM) and activation with 2.5 μg/ml soluble anti-CD3 (145-2C11, eBioscience) and 1 μg/ml soluble anti-CD28 (37.51, eBioscience) antibodies started immediately after seeding in 200 i/well complete RPMI1640 media for a 24-hour period, at the end of which supernatant was harvested and stored at −80° C.
as §1
Particularly in the context of autoimmune diabetes, the activity of T cells is driving disease onset and progression. […] To mimic antigen presentation, murine CD4 T cells (isolated from spleens; Uchimura T., The Innate Immune Sensor NLRC3 Acts as a Rheostat that Fine-Tunes T Cell Responses in Infection and Autoimmunity. Immunity 2019) were activated by monoclonal antibodies against CD3 and CD28 (2.5 and 1 μg/ml, respectively).

INS1E beta cells = experiment: Seahorse XF intracellular metabolism, INS1E beta cells; type: cell-based, rat; details: INS1E beta cells; compared with 6-BT
Description: Lastly, it was investigated whether 6-BT may influence the mitochondrial metabolism of beta cells, which rely on ATP and mitochondrial metabolite production for insulin exocytosis. […] Intracellular metabolism measured using a Seahorse XF Analyzer Uchimura T., The Innate Immune Sensor NLRC3 Acts as a Rheostat that Fine-Tunes T Cell Responses in Infection and Autoimmunity.

SMILES | NFκB pathway activation in macrophages (NF-κB) | cytokine secretion by monocytes [1] | Th1 responses in CD4 T cells (murine CD4+ T cells) | type 1 IFN secretion ([1]; PolyI:C for 24 hours, TLR3 stimulation (FIG. 9)) | effect on intracellular metabolism (INS1E beta cells) | production of the Th1 cytokine IFNgamma (murine CD4+ T cells; CD4 T cells from spleens, anti-CD3 2.5 μg/ml and anti-CD28 1 μg/ml (FIGS. 16, 20))
CCCCC/C=C\C/C=C\C/C=C\C/C=C\CCCC(=O)OC[C@@H](O)COP(=O)([O-])OCC[N+](C)(C)C [A-GPC, 1-arachidonoyl-glycero-phosphocholine] | can inhibit NFκB pathway activation | halt cytokine secretion | dampen Th1 responses | – | – | –
CCCCC/C=C\C/C=C\C/C=C\C/C=C\CCCC(=O)O[C@H](COC(=O)CCCCCCCCCCCCC)COP(=O)([O-])OCC[N+](C)(C)C [MA-GPC, 1-myristoyl-2-arachidonoyl-glycero-phosphocholine] | can inhibit NFκB pathway activation | halt cytokine secretion | hampers immune responses | impair type 1 IFN secretion | – | –
N[C@@H](Cc1c[nH]c2ccccc12)C(=O)O [tryptophan, reference compound] | – | – | – | – | exerted a different effect than 6-BT | but not tryptophan, exerted inhibitory effect
